The text below walks through data of EPA's ToxRefDB 2.

Data set [1] has as its system rat. The note with it: Carcinogenicity, fischer, Oral, Feed, dose end: 105 week, group: systemic.
Data set [2] deals with rat. The note with it: Subchronic oral toxicity in rodents, Fischer, Feed, dose end: 13 week, group: systemic.
In data set [3] the test system is mouse. Conditions: Multigenerational reproductive toxicity study, b6c3f1, Oral, Feed, dose end: 2 generation.
In data set [4] the test system is mouse. The note with it: Subchronic oral toxicity in rodents, b6c3f1, Feed, dose end: 13 week, group: systemic.
The test system of data set [5] is rat. Conditions: Subchronic oral toxicity in rodents, fischer, Feed, dose end: 13 week, group: systemic.
The subject of data set [6] is mouse. Conditions: Carcinogenicity, b6c3f1, Oral, Feed, dose end: 2 year, group: systemic.
The subject of data set [7] is rat. The note with it: Combined chronic toxicity/carcinogenicity, fischer, Oral, Feed, dose end: 2 year, group: systemic.
Another data set relates to dog. The note with it: Chronic toxicity; beagle; Oral; Capsule; dose end: 12 month; group: systemic; systemic / clinical chemistry / urea nitrogen / urea + systemic / in life observation / clinical signs / altered breathing rate + systemic….
Data set [8] relates to mouse. Conditions: Carcinogenicity, swiss albino, Oral, Feed, dose end: 18 month, group: systemic.
The test system of data set [9] is mouse. Conditions: Carcinogenicity, cd1, Oral, Feed, dose end: 18 month, group: systemic.
The subject of data set [10] is rat. Conditions: Subchronic oral toxicity in rodents, other, Gavage/Intubation, dose end: 90 day, group: systemic.
Data set [11] deals with rat. The note with it: Subchronic oral toxicity in rodents, fischer, Feed, dose end: 45 day, group: systemic.
For data set [12], the system named is rat. Conditions: Carcinogenicity; fischer; Oral; Feed; dose end: 2 year; group: systemic; systemic / in life observation / body weight / body weight.
The subject of data set [13] is mouse. The note with it: Carcinogenicity; b6c3f1; Oral; Feed; dose end: 2 year; group: systemic; systemic / in life observation / body weight / body weight.
For data set [14], the system named is mouse. Conditions: Subchronic oral toxicity in rodents, b6c3f1, Feed, dose end: 45 day, group: systemic, systemic / in life observation / mortality / mortality.
[15] abbreviates: systemic / pathology microscopic / kidney / hyperplasia + systemic / pathology microscopic / pancreas / hyperplasia.
[16] abbreviates: systemic / pathology microscopic / kidney / hyperplasia + systemic / pathology microscopic / pancreas / hyperplasia + systemic / pathology ….
Setting [17] is: systemic / clinical chemistry / creatinine / creatinine + systemic / urinalysis / specific gravity/osmolality / specific gravity/osmolality….
The mark [18] stands for this setting: systemic / in life observation / body weight / body weight gain + systemic / in life observation / body weight / body weight + systemic / ….
[19] abbreviates: group: offspring, systemic / in life observation / body weight / offspring (pup) weight.
Where [20] appears, read: group: parental, systemic / in life observation / body weight / body weight + systemic / in life observation / food consumption / food consumption + systemic….
The mark [21] stands for this setting: group: parental, systemic / in life observation / body weight / body weight + systemic / organ weight / kidney / relative to body weight + systemic / in life….
The mark [22] stands for this setting: group: reproductive, reproductive / reproductive performance / reproductive performance other / NOS + reproductive / reproductive performance / estrous cycle / ….
Where [23] appears, read: systemic / in life observation / body weight / body weight + systemic / in life observation / body weight / body weight gain.
[24] abbreviates: systemic / pathology microscopic / kidney / hyaline droplet.
[25] abbreviates: systemic / in life observation / body weight / body weight + systemic / pathology microscopic / lung / hyperplasia.
The mark [26] stands for this setting: systemic / pathology microscopic / lung / adenoma/carcinoma combined.
[27] abbreviates: systemic / pathology microscopic / kidney / hyperplasia + systemic / pathology microscopic / kidney / pigmentation.
The mark [28] stands for this setting: systemic / pathology microscopic / kidney / hyperplasia + systemic / pathology microscopic / kidney / pigmentation + systemic / pathology ….
Where [29] appears, read: systemic / organ weight / kidney / absolute + systemic / organ weight / kidney / relative to body weight + systemic / organ weight / liver….
Where [30] appears, read: systemic / pathology microscopic / liver / adenoma + systemic / pathology microscopic / liver / adenoma/carcinoma combined + systemic / ….
[31] abbreviates: systemic / pathology microscopic / liver / adenoma/carcinoma combined + systemic / hematology / erythrocyte (rbc) count differential / ….
The mark [32] stands for this setting: systemic / clinical chemistry / 5' nucleotidase / 5' nucleotidase + systemic / clinical chemistry / protein / protein + systemic / in life ….
The mark [33] stands for this setting: systemic / clinical chemistry / 5' nucleotidase / 5' nucleotidase + systemic / organ weight / liver / relative to body weight + systemic / ….
[34] abbreviates: systemic / in life observation / body weight / body weight.
Where [35] appears, read: systemic / in life observation / body weight / body weight + systemic / in life observation / mortality / mortality.

The LOAEL is the lowest dose or exposure tested at which an adverse effect was seen. What is called NOAEL is the highest tested level that showed no adverse finding. `OCC(CO)(CCBr)CCBr` [2,2-Bis(bromoethyl)-1,3-propanediol]: in the data set with rat [1] (setting [15]), the LOAEL was 100 mg/kg/day and the no observed adverse effect level (NOAEL) was less than 100 mg/kg/day. Besides, in the data set on rat [1] (setting [16]), the LEL is 100 mg/kg/day and the NEL was less than 100 mg/kg/day. In addition, in the data set with rat [2] (setting [17]), the LEL was determined as 100 mg/kg/day and the NEL was less than 100 mg/kg/day. For the same molecule, in the data set on rat [2] (setting [18]), the lowest-observed-adverse-effect level (LOAEL) came out at 400 mg/kg/day and the no-observed-adverse-effect level (NOAEL) is 200 mg/kg/day.
Turning to `O=C(O)c1ccc([N+](=O)[O-])cc1` [4-Nitrobenzoic acid], the LEL in the data set with mouse [3] (setting [19]) was found to be 500 mg/kg/day; in the data set with mouse [3] (setting [20]) it was 500 mg/kg/day; in the data set with mouse [3] (group: reproductive, reproductive / reproductive performance / reproductive performance other / NOS + reproductive / reproductive performance / gestational …), 1100 mg/kg/day; in the data set on mouse [4] (setting [23]) it was 170 mg/kg/day; with rat [5] (setting [24]), 40 mg/kg/day; in the data set on mouse [6] (setting [26]) it was 170 mg/kg/day. For the same molecule, in the data set with rat [7] (setting [27]), the LEL stood at 50 mg/kg/day. For the same molecule, the LOAEL in the data set on mouse [3] (setting [19]) was greater than 2400 mg/kg/day; in the data set with mouse [3] (setting [21]), greater than 2400 mg/kg/day; in the data set with mouse [3] (setting [22]), greater than 2400 mg/kg/day; with mouse [4] (setting [23]) it was 670 mg/kg/day; in the data set on rat [5] (systemic / in life observation / body weight / body weight gain + systemic / organ weight / spleen / relative to body weight + systemic / …), 310 mg/kg/day; in the data set on mouse [6] (setting [25]), greater than 675 mg/kg/day. Also, the LOAEL with rat [7] (setting [28]) came out at 100 mg/kg/day. In addition, the NEL with mouse [3] (setting [19]) was less than 500 mg/kg/day; in the data set on mouse [3] (setting [20]) it was less than 500 mg/kg/day; in the data set on mouse [3] (setting [22]), 500 mg/kg/day; in the data set with mouse [4] (setting [23]), less than 170 mg/kg/day; in the data set with rat [5] (setting [24]), less than 40 mg/kg/day; with mouse [6] (setting [26]), less than 170 mg/kg/day. Besides, the NEL in the data set on rat [7] (setting [27]) was less than 50 mg/kg/day. Also, the NOAEL with mouse [3] (setting [19]) was no less than 2400 mg/kg/day; in the data set with mouse [3] (setting [21]) it was no less than 2400 mg/kg/day; with mouse [3] (setting [22]) it was no less than 2400 mg/kg/day; in the data set with mouse [4] (systemic / in life observation / body weight / body weight + systemic / in life observation / body weight / body weight gain + systemic / …) it was 330 mg/kg/day; in the data set with rat [5] (systemic / pathology microscopic / kidney / hyaline droplet + systemic / in life observation / body weight / body weight gain + systemic / …) it was 160 mg/kg/day; in the data set on mouse [6] (setting [25]) it was no less than 675 mg/kg/day. The no-observed-adverse-effect level (NOAEL) in the data set with rat [7] (setting [28]) came to 50 mg/kg/day.
As for `N#Cc1cc(Br)c(O)c(Br)c1` [Bromoxynil], the LEL with dog turned out to be 1.5 mg/kg/day; in the data set on mouse [8] (systemic / pathology microscopic / liver / carcinoma + systemic / pathology microscopic / liver / hyperplasia), 4 mg/kg/day; with mouse [9] (setting [31]), 3.1 mg/kg/day. For the same molecule, the values for the LOAEL in the data set on dog, in the data set on mouse [8] (setting [29]) and with mouse [9] (setting [30]) were 1.5 mg/kg/day, greater than 13.3 mg/kg/day and 12 mg/kg/day, respectively. For the same molecule, the values for the NEL in the data set with dog, in the data set on mouse [8] (systemic / pathology microscopic / liver / adenoma + systemic / pathology microscopic / liver / carcinoma + systemic / organ weight / liver…) and with mouse [9] (setting [31]) were 0.3 mg/kg/day, 1.33 mg/kg/day and less than 3.1 mg/kg/day, respectively. In addition, the NOAEL in the data set with dog was 0.3 mg/kg/day; with mouse [8] (setting [29]) it was no less than 13.3 mg/kg/day; with mouse [9] (setting [30]), 3.1 mg/kg/day.
Consider `N#CC(Cl)Cl` [Dichloroacetonitrile], for which, in the data set with rat [10] (setting [32]), the LOAEL was greater than 65 mg/kg/day and the no-observed-adverse-effect level (NOAEL) is no less than 65 mg/kg/day. Also, in the data set on rat [10] (setting [33]), the LEL worked out at 8 mg/kg/day and the NEL was less than 8 mg/kg/day.
On to `Cc1ccc(S(=O)(=O)NC(=O)NN2CCCCCC2)cc1` [Tolazamide], for which the LEL was 1000 mg/kg/day with rat [11] (setting [34]), 250 mg/kg/day in the data set on rat [12], 750 mg/kg/day with mouse [13] and 3750 mg/kg/day in the data set with mouse [14]. Besides, the LOAEL in the data set on rat [11] (setting [34]) was 1000 mg/kg/day; with rat [12], greater than 500 mg/kg/day; in the data set on mouse [13], 750 mg/kg/day; with mouse [14], greater than 7500 mg/kg/day. The NEL was 500 mg/kg/day with rat [11] (setting [35]), less than 250 mg/kg/day in the data set on rat [12], less than 750 mg/kg/day with mouse [13] and 1800 mg/kg/day in the data set on mouse [14]. Moreover, the NOAEL in the data set on rat [11] (setting [35]) is 500 mg/kg/day; in the data set on rat [12], no less than 500 mg/kg/day; in the data set with mouse [13], less than 750 mg/kg/day; with mouse [14], no less than 7500 mg/kg/day.
